This is an account of results in the OligoGym collection.

Oligonucleotides are given in HELM: sugar(base)linkage, 5' to 3'; d 2'-deoxyribose, r ribose, m 2'-O-methylribose, p phosphate. ss, as = sense and antisense strand
Note: test concentration or dose not given here.

The data set addresses CDC34. Nature of the data set: reporter assay of Huesken 2005. The note with it: siRNA. For orientation: Reporter assays use an easily measured gene product as a stand-in for the process of interest.
As to “RNA1{r(A)p.r(C)p.r(U)p.r(A)p.r(C)p.r(G)p.r(A)p.r(G)p.r(G)p.r(G)p.r(C)p.r(G)p.r(G)p.r(C)p.r(U)p.r(A)p.r(C)p.r(U)p.r(U)p.d(T)p.d(T)}|RNA2{r(A)p.r(A)p.r(G)p.r(U)p.r(A)p.r(G)p.r(C)p.r(C)p.r(G)p.r(C)p.r(C)p.r(C)p.r(U)p.r(C)p.r(G)p.r(U)p.r(A)p.r(G)p.r(U)p.d(A)p.d(G)}$$$RNA1{StrandType:ss}|RNA2{StrandType:as}$”, the normalised inhibition (eCFP-eYFP dual reporter) was 73.7%.

As to “RNA1{r(C)p.r(C)p.r(A)p.r(C)p.r(C)p.r(C)p.r(G)p.r(C)p.r(C)p.r(G)p.r(G)p.r(U)p.r(G)p.r(G)p.r(A)p.r(C)p.r(G)p.r(A)p.r(C)p.d(T)p.d(T)}|RNA2{r(G)p.r(U)p.r(C)p.r(G)p.r(U)p.r(C)p.r(C)p.r(A)p.r(C)p.r(C)p.r(G)p.r(G)p.r(C)p.r(G)p.r(G)p.r(G)p.r(U)p.r(G)p.r(G)p.d(A)p.d(G)}$$$RNA1{StrandType:ss}|RNA2{StrandType:as}$”, the normalised inhibition (eCFP-eYFP dual reporter) came to 44.2%.

“RNA1{r(A)p.r(A)p.r(G)p.r(A)p.r(U)p.r(G)p.r(U)p.r(G)p.r(G)p.r(C)p.r(A)p.r(C)p.r(C)p.r(C)p.r(U)p.r(A)p.r(A)p.r(C)p.r(A)p.d(T)p.d(T)}|RNA2{r(U)p.r(G)p.r(U)p.r(U)p.r(A)p.r(G)p.r(G)p.r(G)p.r(U)p.r(G)p.r(C)p.r(C)p.r(A)p.r(C)p.r(A)p.r(U)p.r(C)p.r(U)p.r(U)p.d(G)p.d(G)}$$$RNA1{StrandType:ss}|RNA2{StrandType:as}$” returned a normalised inhibition (eCFP-eYFP dual reporter) of 36.7%.

As to “RNA1{r(C)p.r(U)p.r(G)p.r(A)p.r(G)p.r(U)p.r(G)p.r(U)p.r(G)p.r(A)p.r(U)p.r(C)p.r(U)p.r(C)p.r(C)p.r(C)p.r(U)p.r(C)p.r(C)p.d(T)p.d(T)}|RNA2{r(G)p.r(G)p.r(A)p.r(G)p.r(G)p.r(G)p.r(A)p.r(G)p.r(A)p.r(U)p.r(C)p.r(A)p.r(C)p.r(A)p.r(C)p.r(U)p.r(C)p.r(A)p.r(G)p.d(G)p.d(A)}$$$RNA1{StrandType:ss}|RNA2{StrandType:as}$”, the normalised inhibition (eCFP-eYFP dual reporter) was found to be 23.2%.

With “RNA1{r(C)p.r(G)p.r(C)p.r(G)p.r(U)p.r(G)p.r(A)p.r(C)p.r(A)p.r(C)p.r(U)p.r(G)p.r(G)p.r(U)p.r(G)p.r(G)p.r(A)p.r(C)p.r(G)p.d(T)p.d(T)}|RNA2{r(C)p.r(G)p.r(U)p.r(C)p.r(C)p.r(A)p.r(C)p.r(C)p.r(A)p.r(G)p.r(U)p.r(G)p.r(U)p.r(C)p.r(A)p.r(C)p.r(G)p.r(C)p.r(G)p.d(G)p.d(A)}$$$RNA1{StrandType:ss}|RNA2{StrandType:as}$”, the normalised inhibition (eCFP-eYFP dual reporter) amounted to 67.3%.

With “RNA1{r(G)p.r(C)p.r(G)p.r(A)p.r(U)p.r(C)p.r(U)p.r(A)p.r(U)p.r(A)p.r(C)p.r(A)p.r(A)p.r(C)p.r(U)p.r(G)p.r(G)p.r(G)p.r(A)p.d(T)p.d(T)}|RNA2{r(U)p.r(C)p.r(C)p.r(C)p.r(A)p.r(G)p.r(U)p.r(U)p.r(G)p.r(U)p.r(A)p.r(U)p.r(A)p.r(G)p.r(A)p.r(U)p.r(C)p.r(G)p.r(C)p.d(C)p.d(C)}$$$RNA1{StrandType:ss}|RNA2{StrandType:as}$”, the normalised inhibition (eCFP-eYFP dual reporter) worked out at 74%.

In turn, “RNA1{r(C)p.r(C)p.r(U)p.r(C)p.r(U)p.r(U)p.r(C)p.r(U)p.r(A)p.r(C)p.r(G)p.r(A)p.r(C)p.r(G)p.r(A)p.r(C)p.r(U)p.r(A)p.r(C)p.d(T)p.d(T)}|RNA2{r(G)p.r(U)p.r(A)p.r(G)p.r(U)p.r(C)p.r(G)p.r(U)p.r(C)p.r(G)p.r(U)p.r(A)p.r(G)p.r(A)p.r(A)p.r(G)p.r(A)p.r(G)p.r(G)p.d(T)p.d(C)}$$$RNA1{StrandType:ss}|RNA2{StrandType:as}$” had a normalised inhibition (eCFP-eYFP dual reporter) of 82.7%.

Substance “RNA1{r(A)p.r(G)p.r(G)p.r(U)p.r(G)p.r(G)p.r(A)p.r(A)p.r(C)p.r(C)p.r(C)p.r(C)p.r(A)p.r(C)p.r(G)p.r(C)p.r(A)p.r(G)p.r(A)p.d(T)p.d(T)}|RNA2{r(U)p.r(C)p.r(U)p.r(G)p.r(C)p.r(G)p.r(U)p.r(G)p.r(G)p.r(G)p.r(G)p.r(U)p.r(U)p.r(C)p.r(C)p.r(A)p.r(C)p.r(C)p.r(U)p.d(C)p.d(T)}$$$RNA1{StrandType:ss}|RNA2{StrandType:as}$” returned a normalised inhibition (eCFP-eYFP dual reporter) of 72.6%.

In turn, “RNA1{r(C)p.r(G)p.r(A)p.r(C)p.r(G)p.r(A)p.r(C)p.r(U)p.r(A)p.r(C)p.r(U)p.r(A)p.r(C)p.r(G)p.r(G)p.r(G)p.r(A)p.r(C)p.r(G)p.d(T)p.d(T)}|RNA2{r(C)p.r(G)p.r(U)p.r(C)p.r(C)p.r(C)p.r(G)p.r(U)p.r(A)p.r(G)p.r(U)p.r(A)p.r(G)p.r(U)p.r(C)p.r(G)p.r(U)p.r(C)p.r(G)p.d(T)p.d(A)}$$$RNA1{StrandType:ss}|RNA2{StrandType:as}$” had a normalised inhibition (eCFP-eYFP dual reporter) of 62.7%.

“RNA1{r(G)p.r(A)p.r(U)p.r(G)p.r(U)p.r(A)p.r(C)p.r(A)p.r(G)p.r(G)p.r(A)p.r(A)p.r(G)p.r(U)p.r(G)p.r(G)p.r(A)p.r(A)p.r(A)p.d(T)p.d(T)}|RNA2{r(U)p.r(U)p.r(U)p.r(C)p.r(C)p.r(A)p.r(C)p.r(U)p.r(U)p.r(C)p.r(C)p.r(U)p.r(G)p.r(U)p.r(A)p.r(C)p.r(A)p.r(U)p.r(C)p.d(A)p.d(C)}$$$RNA1{StrandType:ss}|RNA2{StrandType:as}$” showed a normalised inhibition (eCFP-eYFP dual reporter) of 82.9%.

Turning to “RNA1{r(G)p.r(G)p.r(U)p.r(G)p.r(G)p.r(A)p.r(C)p.r(G)p.r(C)p.r(G)p.r(G)p.r(A)p.r(G)p.r(C)p.r(G)p.r(U)p.r(G)p.r(A)p.r(C)p.d(T)p.d(T)}|RNA2{r(G)p.r(U)p.r(C)p.r(A)p.r(C)p.r(G)p.r(C)p.r(U)p.r(C)p.r(C)p.r(G)p.r(C)p.r(G)p.r(U)p.r(C)p.r(C)p.r(A)p.r(C)p.r(C)p.d(T)p.d(T)}$$$RNA1{StrandType:ss}|RNA2{StrandType:as}$”, the normalised inhibition (eCFP-eYFP dual reporter) is 53.4%.

“RNA1{r(G)p.r(G)p.r(A)p.r(G)p.r(U)p.r(A)p.r(C)p.r(A)p.r(C)p.r(A)p.r(G)p.r(A)p.r(C)p.r(A)p.r(U)p.r(C)p.r(A)p.r(U)p.r(C)p.d(T)p.d(T)}|RNA2{r(G)p.r(A)p.r(U)p.r(G)p.r(A)p.r(U)p.r(G)p.r(U)p.r(C)p.r(U)p.r(G)p.r(U)p.r(G)p.r(U)p.r(A)p.r(C)p.r(U)p.r(C)p.r(C)p.d(C)p.d(G)}$$$RNA1{StrandType:ss}|RNA2{StrandType:as}$” returned a normalised inhibition (eCFP-eYFP dual reporter) of 76.6%.

In turn, “RNA1{r(G)p.r(A)p.r(G)p.r(U)p.r(A)p.r(C)p.r(U)p.r(G)p.r(C)p.r(G)p.r(U)p.r(G)p.r(A)p.r(A)p.r(G)p.r(A)p.r(C)p.r(C)p.r(A)p.d(T)p.d(T)}|RNA2{r(U)p.r(G)p.r(G)p.r(U)p.r(C)p.r(U)p.r(U)p.r(C)p.r(A)p.r(C)p.r(G)p.r(C)p.r(A)p.r(G)p.r(U)p.r(A)p.r(C)p.r(U)p.r(C)p.d(G)p.d(G)}$$$RNA1{StrandType:ss}|RNA2{StrandType:as}$” registered a normalised inhibition (eCFP-eYFP dual reporter) of 73.7%.

The substance “RNA1{r(C)p.r(U)p.r(A)p.r(C)p.r(G)p.r(A)p.r(G)p.r(G)p.r(G)p.r(C)p.r(G)p.r(G)p.r(C)p.r(U)p.r(A)p.r(C)p.r(U)p.r(U)p.r(C)p.d(T)p.d(T)}|RNA2{r(G)p.r(A)p.r(A)p.r(G)p.r(U)p.r(A)p.r(G)p.r(C)p.r(C)p.r(G)p.r(C)p.r(C)p.r(C)p.r(U)p.r(C)p.r(G)p.r(U)p.r(A)p.r(G)p.d(T)p.d(A)}$$$RNA1{StrandType:ss}|RNA2{StrandType:as}$” registered a normalised inhibition (eCFP-eYFP dual reporter) of 59.8%.

As for “RNA1{r(C)p.r(G)p.r(C)p.r(C)p.r(U)p.r(C)p.r(C)p.r(G)p.r(U)p.r(G)p.r(A)p.r(U)p.r(G)p.r(U)p.r(A)p.r(C)p.r(A)p.r(G)p.r(G)p.d(T)p.d(T)}|RNA2{r(C)p.r(C)p.r(U)p.r(G)p.r(U)p.r(A)p.r(C)p.r(A)p.r(U)p.r(C)p.r(A)p.r(C)p.r(G)p.r(G)p.r(A)p.r(G)p.r(G)p.r(C)p.r(G)p.d(T)p.d(C)}$$$RNA1{StrandType:ss}|RNA2{StrandType:as}$”, the normalised inhibition (eCFP-eYFP dual reporter) came out at 36.4%.

“RNA1{r(C)p.r(G)p.r(U)p.r(G)p.r(G)p.r(A)p.r(C)p.r(G)p.r(C)p.r(C)p.r(U)p.r(C)p.r(C)p.r(G)p.r(U)p.r(G)p.r(A)p.r(U)p.r(G)p.d(T)p.d(T)}|RNA2{r(C)p.r(A)p.r(U)p.r(C)p.r(A)p.r(C)p.r(G)p.r(G)p.r(A)p.r(G)p.r(G)p.r(C)p.r(G)p.r(U)p.r(C)p.r(C)p.r(A)p.r(C)p.r(G)p.d(T)p.d(T)}$$$RNA1{StrandType:ss}|RNA2{StrandType:as}$”: the normalised inhibition (eCFP-eYFP dual reporter) is 79.4%.

The substance “RNA1{r(C)p.r(C)p.r(G)p.r(A)p.r(G)p.r(U)p.r(A)p.r(C)p.r(U)p.r(G)p.r(C)p.r(G)p.r(U)p.r(G)p.r(A)p.r(A)p.r(G)p.r(A)p.r(C)p.d(T)p.d(T)}|RNA2{r(G)p.r(U)p.r(C)p.r(U)p.r(U)p.r(C)p.r(A)p.r(C)p.r(G)p.r(C)p.r(A)p.r(G)p.r(U)p.r(A)p.r(C)p.r(U)p.r(C)p.r(G)p.r(G)p.d(C)p.d(C)}$$$RNA1{StrandType:ss}|RNA2{StrandType:as}$” registered a normalised inhibition (eCFP-eYFP dual reporter) of 59%.

Regarding “RNA1{r(C)p.r(A)p.r(A)p.r(G)p.r(G)p.r(C)p.r(G)p.r(C)p.r(C)p.r(G)p.r(G)p.r(C)p.r(G)p.r(C)p.r(C)p.r(C)p.r(G)p.r(A)p.r(C)p.d(T)p.d(T)}|RNA2{r(G)p.r(U)p.r(C)p.r(G)p.r(G)p.r(G)p.r(C)p.r(G)p.r(C)p.r(C)p.r(G)p.r(G)p.r(C)p.r(G)p.r(C)p.r(C)p.r(U)p.r(U)p.r(G)p.d(G)p.d(T)}$$$RNA1{StrandType:ss}|RNA2{StrandType:as}$”, the normalised inhibition (eCFP-eYFP dual reporter) was determined as 26.8%.

With “RNA1{r(G)p.r(A)p.r(U)p.r(C)p.r(U)p.r(A)p.r(U)p.r(A)p.r(C)p.r(A)p.r(A)p.r(C)p.r(U)p.r(G)p.r(G)p.r(G)p.r(A)p.r(G)p.r(G)p.d(T)p.d(T)}|RNA2{r(C)p.r(C)p.r(U)p.r(C)p.r(C)p.r(C)p.r(A)p.r(G)p.r(U)p.r(U)p.r(G)p.r(U)p.r(A)p.r(U)p.r(A)p.r(G)p.r(A)p.r(U)p.r(C)p.d(G)p.d(C)}$$$RNA1{StrandType:ss}|RNA2{StrandType:as}$”, the normalised inhibition (eCFP-eYFP dual reporter) came to 41.7%.

Substance “RNA1{r(C)p.r(C)p.r(U)p.r(C)p.r(C)p.r(U)p.r(G)p.r(A)p.r(A)p.r(C)p.r(G)p.r(A)p.r(G)p.r(C)p.r(C)p.r(C)p.r(A)p.r(A)p.r(C)p.d(T)p.d(T)}|RNA2{r(G)p.r(U)p.r(U)p.r(G)p.r(G)p.r(G)p.r(C)p.r(U)p.r(C)p.r(G)p.r(U)p.r(U)p.r(C)p.r(A)p.r(G)p.r(G)p.r(A)p.r(G)p.r(G)p.d(G)p.d(A)}$$$RNA1{StrandType:ss}|RNA2{StrandType:as}$” returned a normalised inhibition (eCFP-eYFP dual reporter) of 68.2%.
